From paper PMC6037691, “Selenazolyl-hydrazones as Novel Selective MAO Inhibitors With Antiproliferative and Antioxidant Activities: Experimental and In-silico Studies” (Frontiers in Chemistry, 2018)

Tests used:
[1] = DPPH scavenging antioxidant assay; details: concentration providing 50% of radicals scavenging activity; mean ± SD, n = 3
Procedure: The experiments were performed according to the literature protocol (Prior et al., [2005]). All tested compounds were initially dissolved in DMSO. The initial concentration of DPPH in methanol was 6.58 × 10^−5 M. A volume of 140 μL of DPPH solution was placed into a 96-well microplate, and then 10 μL solution of the tested compounds was added. Pure DMSO (10 μL) was used as the control. The absorbance at 517 nm was measured after 30 min period of incubation in the dark at 25°C. The Equation (1) was used for calculation of the scavenging activity:
(1) Scavenging activity (%)=Acontrol- Asample/Acontrol×100
where Asample and Acontrol refer to the absorbances at 517 nm of the sample and control, respectively. IC50 values were calculated from the graph of scavenging activity against the concentrations of the samples. IC50 represents the total antioxidant concentration of the sample which decreases the amount of the initial DPPH radical by 50%. Ascorbic acid (vitamin C) was used as positive control (concentration range 10–500 μM).

[2] = Total reducing power (TRP), modified potassium ferricyanide reduction method; details: concentration providing 0.500 of absorbance at 700 nm; mean ± SD, n = 3
Procedure: The mixture containing 0.5 mL of phosphate buffer (0.2 M, pH = 6.6), 0.5 mL of K3[Fe(CN)6] (1%; w/v) and 0.5 mL of the samples (100–1,500 μM) was incubated at 50°C for 20 min. A volume of 0.5 mL of trichloroacetic acid (TCA, 10%; w/v), 0.5 mL of Milli-Q water and 0.5 mL of FeCl3 (0.1%; w/v) was added, followed by intensive vortexing. The absorbance of the resulting mixture was measured after 60 min at 700 nm using phosphate buffer as blank (Oyaizu, [1986]).
Volume of 0.4 mL of sample solution (50–1,000 μM) was mixed with 1.6 mL of reagent solution [0.6 M H2SO4, 28 mM Na3PO4, and 4 mM (NH4)2MoO4] and resulting mixtures were incubated at 95°C for 90 min. The cooled reaction mixtures were then centrifuged for 10 min (3,000 rpm). The absorbance of the supernatant solution was measured, 1 h after centrifugation, at 695 nm against reagent solution as blank. An increased absorbance in reading in both assays indicated increased antioxidant power, expressed as EC50 values (the sample concentration giving absorbance of 0.500 from the graph of absorbance at 700 nm or 695 nm against compound concentration) (Prieto et al., [1999]).

[3] = tested on: A549 (non-small cell lung); assay: Antiproliferative activity, A549; assay type: cell-based, human; details: for GI50: Homo sapiens
Procedure: (§1) The in vitro antiproliferative activity of investigated compounds was evaluated against six human solid tumor cell lines: A549 (non-small cell lung), HBL-100, (breast), HeLa (cervix), SW1573 (non-small cell lung), as drug sensitive lines, T-47D (breast) and WiDr (colon) as drug resistant lines. These cell lines were a kind gift from Prof. G. J. Peters (VU Medical Center, Amsterdam, The Netherlands). For selectivity studies, the human fibroblasts BJ-hTert cell line was used, which was obtained from Dr. R. Freire (HUC, Tenerife, Canary Islands). Cells were kept in culture medium under standard conditions: RPMI 1640 medium, fetal bovine serum (5%), glutamine (2 mM), penicillin G (100 units/mL) and streptomycin (0.1 mg/mL). Antiproliferative tests were conducted as described earlier (Skehan et al., [1990]; Miranda et al., [2006]). Tested compounds were dissolved in DMSO at an initial concentration of 40 mM. DMSO was used as negative control (0.25% v/v). Antiproliferative activity of the compounds was expressed as GI50, which is the concentration of the compound that inhibits 50% of the culture growth.

HBL-100 (breast) = assay: Antiproliferative activity, HBL-100; assay type: cell-based, human; details: for GI50: Homo sapiens
Procedure: as §1

HeLa (cervix) = assay: Antiproliferative activity, HeLa; assay type: cell-based, human; details: for GI50: Homo sapiens
Procedure: as §1

WiDr (colon) = assay: Antiproliferative activity, WiDr; assay type: cell-based, human; details: for GI50: Homo sapiens
Procedure: as §1

[4] = tested on: human fibroblasts BJ-hTert cell line; assay: Selectivity, non-transformed fibroblasts BJ-hTert; assay type: cell-based; details: Fibroblast; BJ-hTert normal human cell line; concentrations up to 100 μM
Procedure: as §1

[5] = tested on: six human solid tumor cell lines; assay: Antiproliferative activity, panel as a whole; assay type: cell-based; design: key: moderate activity (GI50 = 10–100 μM); good activity (GI50 = 1–10 μM); inactive (GI50 > 100 μM); details: five cell lines of the six
Procedure: as §1

| Compound | IC50 [1] | EC50 [2] | antiproliferative activity class A549 [3] | GI50 [3] | antiproliferative activity class HBL-100 (HBL-100 (breast)) | GI50 (HBL-100 (breast)) | antiproliferative activity class HeLa (HeLa (cervix)) | GI50 (HeLa (cervix)) | antiproliferative activity class WiDr (WiDr (colon)) | GI50 (WiDr (colon)) | GI50 [4] | antiproliferative activity class against five cell lines [5] |
| --- | --- | --- | --- | --- | --- | --- | --- | --- | --- | --- | --- | --- |
| C(=NNc1nc(-c2ccccc2)c[se]1)c1ccccc1 [Compound 1, 2-(2-benzylidenehydrazinyl)-4-phenyl-1,3-selenazole] | 8.63 ± 1.66 µM | 990 ± 92 µM | moderate activity (moderate activity (GI50 = 10–100 μM)) | 28 ± 7.1 µM | moderate activity (moderate activity (GI50 = 10–100 μM)) | 91 ± 12 µM | moderate activity (moderate activity (GI50 = 10–100 μM)) | 41 ± 9.5 µM | good activity (good activity (GI50 = 1–10 μM)) | 4.8 ± 0.8 µM | > 100 µM |  |
| COc1ccc(-c2c[se]c(NN=Cc3ccccc3)n2)cc1 [Compound 1-OMe, 2-(2-benzylidenehydrazinyl)-4-(4-methoxyphenyl)-1,3-selenazole] | 54.3 ± 4.54 µM | 806 ± 85 µM |  | > 100 µM |  | > 100 µM |  | > 100 µM |  | > 100 µM | > 100 µM | inactive |
| O=[N+]([O-])c1ccccc1C=NNc1nc(-c2ccccc2)c[se]1 [Compound 2, 2-(2-(2-nitrobenzylidene)hydrazinyl)-4-phenyl-1,3-selenazole] | 21.9 ± 5.6 µM | 390 ± 48 µM | good activity (good activity (GI50 = 1–10 μM)) | 4.9 ± 1.5 µM |  | 21 ± 8.6 µM | good activity (good activity (GI50 = 1–10 μM)) | 6 ± 0.7 µM | good activity (good activity (GI50 = 1–10 μM)) | 5 ± 0.9 µM | > 100 µM |  |
| Cc1ccc(-c2c[se]c(NN=Cc3ccccc3[N+](=O)[O-])n2)cc1 [Compound 2-Me, 2-(2-(2-nitrobenzylidene)hydrazinyl)-4-(p-tolyl)-1,3-selenazole] | 20.2 ± 4.3 µM | 470 ± 41 µM | good activity (good activity (GI50 = 1–10 μM)) | 8.8 ± 2.2 µM |  | 95 ± 8.1 µM | good activity (good activity (GI50 = 1–10 μM)) | 7.4 ± 1.4 µM | good activity (good activity (GI50 = 1–10 μM)) | 8.2 ± 1 µM | > 100 µM |  |
| COc1ccc(-c2c[se]c(NN=Cc3ccccc3[N+](=O)[O-])n2)cc1 [Compound 2-OMe, 4-(4-methoxyphenyl)-2-(2-(2-nitrobenzylidene)hydrazinyl)-1,3-selenazole] | 40.5 ± 3.8 µM | 560 ± 53 µM |  | 22 ± 5.6 µM |  | > 100 µM |  | 49 ± 12 µM |  | 22 ± 2.3 µM | > 100 µM |  |
| O=[N+]([O-])c1cccc(C=NNc2nc(-c3ccccc3)c[se]2)c1 [Compound 3, 2-(2-(3-nitrobenzylidene)hydrazinyl)-4-phenyl-1,3-selenazole] | 174 ± 11.6 µM | 420 ± 45 µM | good activity (good activity (GI50 = 1–10 μM)) | 6.1 ± 0.8 µM |  | 28 ± 0.8 µM |  | 24 ± 7.1 µM |  | 40 ± 0.6 µM | > 100 µM |  |
| Cc1ccc(-c2c[se]c(NN=Cc3cccc([N+](=O)[O-])c3)n2)cc1 [Compound 3-Me, 2-(2-(3-nitrobenzylidene)hydrazinyl)-4-(p-tolyl)-1,3-selenazole] | 152 ± 10.1 µM | 480 ± 50 µM |  | 44 ± 15 µM |  | 60 ± 9.5 µM |  | 31 ± 4 µM |  | 55 ± 19 µM | > 100 µM |  |
| COc1ccc(-c2c[se]c(NN=Cc3cccc([N+](=O)[O-])c3)n2)cc1 [Compound 3-OMe, 4-(4-methoxyphenyl)-2-(2-(3-nitrobenzylidene)hydrazinyl)-1,3-selenazole] | 298 ± 14.8 µM | 488 ± 46 µM |  | 52 ± 1 µM |  | > 100 µM |  | 26 ± 2 µM |  | > 100 µM | > 100 µM |  |
